According to patent US9995734B2, “Human T cell line assay for evaluating the immunologic identity of glatiramer acetate preparations” (Mylan Inc., priority 2013, dated 2018):
“And” between values parts separate entries of the source, which are not always exact repeats. Identical values can stand only once.

Columns and labels:
Donor 1 COP T-Cell Lines = test: ATP proliferation assay (CellTiter Glo), Donor 1 COP T-cell lines, incl. reactivity to non-canonical GA peptides; assay type: cell-based, human; conditions: for luminescent ATP proliferation assay, mean: no antigen 5673 (Table 9); for Nonreactive T-Cell Line: stimulation with the non-canonical GA peptide; for response to GMA in comparison to COP: 10 μg/mL dose; for ATP Proliferation Assay, Mean: Day 56, second assay; for ATP proliferation assay: 48 hours after stimulation; for Proliferation (luminescent ATP assay), Mean: Day 56 of culturing
Description: (§1) Proliferation was evaluated by measuring ATP content using a luminescent method (CellTiter Glo Luminescent Cell Viability Assay, Promega, Madison, Wis., cat. #G7571) or by measuring BrdU uptake by ELISA (Millipore cat. #2752), in both cases following kit instructions. A split well format was used. Cells in each well were resuspended and 65 μl transferred to the wells of each of two new U-bottom 96-well plates, to generate the replicate plates. For the initial screening, the original 96-well plate received mitomycin-treated autologous PBMC as APC plus 10 μg/mL antigen (GA). A first replicate plate received 100 μl., mitomycin-treated PBMC alone (2×10^5), and no antigen, and a second replicate plate received 100 μL mitomycin-treated PBMC plus GA at a final concentration of 10 μg/mL. Therefore, all three plates received autologous APC (PBMC) treated with mitomycin C to prevent cell division. […] The latter two plates were incubated for 3 days at 37° C., 6% CO2 before adding CellTiter Glo or BrdU and measuring signal. IL-2 was added at 10 U/mL to the original 96-well plate for expansion on Day 17. For subsequent screenings, mitomycin-treated EBV-transformed autologous B-LCL (2×10^5 to 5×10^5 cells/mL) were used as APC.
COP-responsive T-cell lines were obtained from Donor 1. In the initial stimulation, isolated PBMC were plated at 1×10^5 cells per well (5×10^5 cells/mL) with 10 μg/mL Copaxone and cultured as described above. IL-2 was added to all wells on Days 4 and 7 of culture, and the wells screened for reactivity on Day 14 using a luminescent proliferation assay in split well format. The original plate was restimulated, and IL-2 added 4 days after restimulation.
(§2) T-cell line 222-2D8, generated from Donor 1 by initial stimulation with COP, was shown in at least two experiments to proliferate comparably following restimulation with GMA and COP. […] ATP levels were measured at 48 hours after stimulation. The control in the GMA series was no antigen, and the control in the COP series was MBP. The response to GMA in comparison to COP at the 10 μg/mL dose in this assay was 103.4%.
In a second ATP proliferation assay, carried out on Day 56 or culturing following stimulation with 1, 3, or 10 μg/mL of GMA or COP, the response to GMA in comparison to COP at the 10 μg/mL dose was 107.1%.
as §2, with “line 222-2F1,” for “line 222-2D8,”, “Donor 222” for “Donor 1”, “was 85.1%.” for “was 103.4%.”
On Day 56 of culturing, after six total rounds of stimulation, cell line 222-2F12 was assayed for proliferation in response to stimulation with GA and a series of non-canonical peptides. For the assay, 0, 3, 10, or 30 μg/mL of each of peptides GL 14, GLT 631, GAT 111, and GAT 631, COP, and GMA, were added to the T-cell lines at 1×10^5 cells/mL, in the presence of mitomycin C-treated autologous B-LCL. Proliferation was measured by luminescent ATP assay. Cell line 222-2F12 responded to GL 14 at 3 μg/mL, and not to the other non-canonical GA peptides tested. The response to GMA in comparison to COP at the 10 μg/mL dose in this assay was 99.4%.
The cultures were restimulated on days 46, 56, 67 and 75. On Day 56, cell lines 222-2D8, 222-1H12, 222-2F12, 222-2B8, 222-105, 222-2B11, and 222-2E1 again were tested for reactivity to stimulation with 1, 3, or 10 μg/mL of GMA or COP in a proliferation assay. ATP levels were measured in all seven cell lines at 48 hours (results in FIGS. 5A-G) after stimulation. The control in the GMA series was no antigen, and the control in the COP series was MBP. […]

[1] = tested on: Donor 1 GMA Expanded T-Cell Lines (222-AG11, 222-AG12, 222-BA11, 222-BC11); test: ATP proliferation assay (CellTiter Glo), Donor 1 GMA expanded T-cell lines, incl. reactivity to non-canonical GA peptides; assay type: cell-based, human; conditions: for Non-Canonical Peptide Non-Reactivity: 222-AG12, proliferation <2 times no antigen control; for Nonreactive T-Cell Line: Donor 1 GMA expanded lines, stimulation with the non-canonical GA peptide; for Proliferation (luminescent ATP assay), Mean: T-cell line 222-AG12, autologous B-LCL
Description: as §1
On Day 24, cells from the wells corresponding to the eight presumptive GA-specific human T-cell lines listed in Table 4 were transferred to a 24-well plate and expanded by stimulating with 10 μg/mL GMA and mitomycin-treated autologous PBMC as APC (3×10^6 per well, i.e., 1.5×10^6/mL). On Day 32 four of the eight lines, 222-BA11, 222-BC11, 222-AG11, and 222-AG12, were stimulated with 0, 1, 10 and 100 μg/mL GMA and tested in a 96-well plate for a proliferative response to GMA using an ATP assay, again using autologous PBMC as APC (2×10^5 per well, i.e., 1×10^6/mL). […] FIGS. 2A and B show the results of the ATP proliferation assay carried out using 222-AG12, 222-BC11, 222-AG11, and 222-BA11 at Day 35 (control=no antigen). FIGS. 3A-C compare the results of ATP proliferation assays carried out after stimulation with varying concentrations of GMA or Copaxone as indicated, using cell lines 222-BA11, 222-BC11, and 222-AG12.
Donor 1 GMA T-cell line 222-AG12 was assayed for proliferation following stimulation with 0, 1, 10, and 30 μg/mL each of peptides GLT 631, GAT 631, GAT 111, LT 11, GT 11, GL 14, COP, and GMA, at a T-cell concentration of 2×10^5 cells/mL, in the presence of mitomycin C-treated autologous B-LCL. Line 222-AG12 was assayed after 3 rounds of restimulation (4 total stimulations). Proliferation was measured by luminescent ATP assay.

Substance: poly (Glu-Lys; 1:4) [GL 14]
- proliferation response to non-canonical GA peptides (Donor 1 COP T-Cell Lines; 222-2F12, Day 56, 0, 3, 10, 30 μg/mL, GL 14 response at 3 μg/mL): responded
- luminescent ATP proliferation assay, mean (Donor 1 COP T-Cell Lines; 222-2F12, Day 56, 3 μg/mL): 17007
- luminescent ATP proliferation assay, mean (Donor 1 COP T-Cell Lines; 222-2F12, Day 56, 10 μg/mL): 331
- luminescent ATP proliferation assay, mean (Donor 1 COP T-Cell Lines; 222-2F12, Day 56, 30 μg/mL): 203
- Non-Canonical Peptide Reactivity (Donor 1 COP T-Cell Lines; 222-2F12, at least one proliferation value >=2 times no antigen control): GL 14
- Reactive T-Cell Line (Donor 1 COP T-Cell Lines; Donor 1 COP lines, at least a 50% increase in proliferation relative to a control after stimulation with the non-canonical GA peptide): 222-2F12 (Donor 1)
- Nonreactive T-Cell Line (Donor 1 COP T-Cell Lines; Donor 1 COP lines): 222-1H12 (Donor 1)
- Non-Canonical Peptide Non-Reactivity [1]: GL 14
- Nonreactive T-Cell Line [1]: 222-AG12 (Donor 1)
- Proliferation (luminescent ATP assay), Mean ([1]; 1 ug/mL antigen): 3531 RLU
- Proliferation (luminescent ATP assay), Mean ([1]; 10 ug/mL antigen): 55 RLU
- Proliferation (luminescent ATP assay), Mean ([1]; 30 ug/mL antigen): 43 RLU

Substance: poly (Glu-Ala-Tyr; 6:3:1) [GAT 631]
- luminescent ATP proliferation assay, mean (Donor 1 COP T-Cell Lines; 222-2F12, Day 56, 3 μg/mL): 4342
- luminescent ATP proliferation assay, mean (Donor 1 COP T-Cell Lines; 222-2F12, Day 56, 10 μg/mL): 3226
- luminescent ATP proliferation assay, mean (Donor 1 COP T-Cell Lines; 222-2F12, Day 56, 30 μg/mL): 3071
- Non-Canonical Peptide Non-Reactivity (Donor 1 COP T-Cell Lines; 222-2F12, proliferation <2 times no antigen control): GAT 631
- Nonreactive T-Cell Line (Donor 1 COP T-Cell Lines; Donor 1 COP lines): 222-2F12 (Donor 1) and 222-1H12 (Donor 1)
- Non-Canonical Peptide Non-Reactivity [1]: GAT 631
- Nonreactive T-Cell Line [1]: 222-AG12 (Donor 1)
- Proliferation (luminescent ATP assay), Mean ([1]; 1 ug/mL antigen): 3442 RLU
- Proliferation (luminescent ATP assay), Mean ([1]; 10 ug/mL antigen): 3217 RLU
- Proliferation (luminescent ATP assay), Mean ([1]; 30 ug/mL antigen): 3548 RLU

Substance: glatiramer acetate [GMA]
- response to GMA in comparison to COP (Donor 1 COP T-Cell Lines; 222-2D8, Day 56 (Table 6)): 103.4%
- response to GMA in comparison to COP (Donor 1 COP T-Cell Lines; 222-2D8, second assay (Table 7)): 107.1%
- ATP Proliferation Assay, Mean (Donor 1 COP T-Cell Lines; 222-2D8, 1 μg/mL (Table 7)): 2078
- ATP Proliferation Assay, Mean (Donor 1 COP T-Cell Lines; 222-2D8, 3 μg/mL (Table 7)): 149752
- ATP Proliferation Assay, Mean (Donor 1 COP T-Cell Lines; 222-2D8, 10 μg/mL (Table 7)): 156417
- ATP proliferation assay (Donor 1 COP T-Cell Lines; 222-2D8, Day 56, 1 μg/mL (Table 6)): 4369
- ATP proliferation assay (Donor 1 COP T-Cell Lines; 222-2D8, Day 56, 3 μg/mL (Table 6)): 7480
- ATP proliferation assay (Donor 1 COP T-Cell Lines; 222-2D8, Day 56, 10 μg/mL (Table 6)): 12793
- response to GMA in comparison to COP (Donor 1 COP T-Cell Lines; 222-2F12 (printed 222-2F1), Day 56 (Table 8)): 85.1%
- response to GMA in comparison to COP (Donor 1 COP T-Cell Lines; 222-2F12, Day 56 (Table 9)): 99.4%
- luminescent ATP proliferation assay, mean (Donor 1 COP T-Cell Lines; 222-2F12, Day 56, 3 μg/mL): 232779
- luminescent ATP proliferation assay, mean (Donor 1 COP T-Cell Lines; 222-2F12, Day 56, 10 μg/mL): 228761
- luminescent ATP proliferation assay, mean (Donor 1 COP T-Cell Lines; 222-2F12, Day 56, 30 μg/mL): 125994
- ATP proliferation assay (Donor 1 COP T-Cell Lines; 222-2F12, Day 56, 1 μg/mL (Table 8)): 6500
- ATP proliferation assay (Donor 1 COP T-Cell Lines; 222-2F12, Day 56, 3 μg/mL (Table 8)): 8520
- ATP proliferation assay (Donor 1 COP T-Cell Lines; 222-2F12, Day 56, 10 μg/mL (Table 8)): 12382
- Proliferation (luminescent ATP assay), Mean (Donor 1 COP T-Cell Lines; T-cell line 222-1H12, 3 μg/mL antigen, 0 μg/mL 5974): 141486 RLU
- Proliferation (luminescent ATP assay), Mean (Donor 1 COP T-Cell Lines; T-cell line 222-1H12, 10 μg/mL antigen, 0 μg/mL 5974): 167193 RLU
- Proliferation (luminescent ATP assay), Mean (Donor 1 COP T-Cell Lines; T-cell line 222-1H12, 30 μg/mL antigen, 0 μg/mL 5974): 82376 RLU
- Proliferation (luminescent ATP assay), Mean (Donor 1 COP T-Cell Lines; T-cell line 222-2F12, 3 μg/mL antigen, 0 μg/mL 5673): 232779
- Proliferation (luminescent ATP assay), Mean (Donor 1 COP T-Cell Lines; T-cell line 222-2F12, 10 μg/mL antigen, 0 μg/mL 5673): 228761
- Proliferation (luminescent ATP assay), Mean (Donor 1 COP T-Cell Lines; T-cell line 222-2F12, 30 μg/mL antigen, 0 μg/mL 5673): 125994
- proliferative response relative to control, dose comparison ([1]; 222-BA11, 222-BC11, 222-AG11, 222-AG12, Day 32, 0, 1, 10, 100 μg/mL): best proliferative response relative to control was observed in the cells stimulated with 10 μg/mL
